For one series, the system named is NeuN+ neurons. Kind of series: Fluorescence tracing of intranasal Alex546-Ins in rat brain sections. Format: in vivo. The note with it: rat brain sections after intranasal Alex546-Ins.
The conditions of series [1]: monkeys, intranasal administration; ref Thorne et al., 2008; cited from earlier work.

As for “Alexa Fluor 546-labeled insulin [Alex546-Ins]”, the “Cell type binding Alex546-Ins (NeuN double-immunostaining)” value in the series with NeuN+ neurons is “on the membrane of NeuN^+ neurons”.

B1: I^125-interferon-β1b (protein, UniProt P01574 22-187, looked up, variant C17S)
Interferon beta: MSYNLLGFLQRSSNFQSQKLLWQLNGRLEYCLKDRMNFDIPEEIKQLQQFQKEDAALTIYEMLQNIFAIFRQDSSSTGWNETIVENLLANVYHQINHLKTVLEEKLEKEDFTRGKLMSSLHLKRYYGRILHYLKAKEYSHCAWTIVRVEILRNFYFINRLTGYLRN
modifications: I-125 radiolabel
B1: the “Time of earliest detection in CSF” value in series [1] was at most 30 min.
